Some test systems named below: A498; A549; COLO 205; DU-145; HL-60; HT-29; Hs-578T; IGROV-1; MCF7; NCI-H460; OVCAR-3; OVCAR-4; PC-3; RXF 393; SF-295; SK-OV-3; SNB-19; SW-620; UACC-257; UO-31.
Holding throughout (assay): DTP human tumour cell line panel, 48 h

SMILES strings stand for the structures.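 Five concentrations, 48 hours, 96-well plates. At the GI50, growth is halved.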 Active and inactive are the calls of the source. Rule as the data show it: active = GI50 up to about 1.1 µM and inactive = higher.

In the case of `CSc1cccc(NC(=O)OC2CCCCCCCCCCC2)c1`, the GI50 in the test with A498 is 21.7 µM (inactive); in the test with A549, 26.9 µM (inactive); in the test on COLO 205 it was 14.5 µM (inactive); in the test with DU-145, 31.8 µM (inactive); in the test on HL-60, 14.3 µM (inactive); in the test with HT-29, 16.6 µM (inactive). Also, the GI50 was 34.4 µM (inactive) with Hs-578T; 33.4 µM (inactive) in the test on IGROV-1; 20.6 µM (inactive) with MCF7; 16.4 µM (inactive) in the test on NCI-H460; 10.5 µM (inactive) with OVCAR-3; 10.4 µM (inactive) in the test on OVCAR-4. Further, the GI50 with PC-3 was 31 µM (inactive); with RXF 393, 18.8 µM (inactive); in the test on SF-295 it was 11.9 µM (inactive); in the test on SK-OV-3, 16.6 µM (inactive); in the test with SNB-19 it was 37.5 µM (inactive); with SW-620, 18.8 µM (inactive). Moreover, the GI50 in the test with UACC-257 is 16 µM (inactive); in the test with UO-31 it was 7.91 µM (inactive).
Regarding `Cn1c(=O)c2c(ncn2CN2CCN(Cn3cnc4c3c(=O)n(C)c(=O)n4C)CC2)n(C)c1=O`, the GI50 in the test on A498 is > 100 µM (inactive); in the test on A549, 34.2 µM (inactive); in the test with COLO 205 it was 39.4 µM (inactive); in the test on DU-145, 45.7 µM (inactive); with HL-60 it was 23 µM (inactive); in the test on HT-29, 26.2 µM (inactive). For the same compound, the GI50 in the test on Hs-578T is > 100 µM (inactive); with IGROV-1 it was 78.5 µM (inactive); in the test on MCF7 it was 16.9 µM (inactive); with NCI-H460 it was 19.2 µM (inactive); with OVCAR-3, > 100 µM (inactive); in the test with OVCAR-4 it was > 100 µM (inactive). Also, the GI50 is 53.5 µM (inactive) with PC-3; 20.2 µM (inactive) in the test with RXF 393; > 100 µM (inactive) in the test on SF-295; > 100 µM (inactive) in the test with SK-OV-3; > 100 µM (inactive) in the test with SNB-19; 23.2 µM (inactive) in the test on SW-620. The results for the GI50 in the test with UACC-257 and in the test on UO-31 were 47.1 µM (inactive) and 46.1 µM (inactive), respectively.
As for `Clc1ccc2c(NCCCCN3OC3c3ccccc3)ccnc2c1` (stereo not given), the GI50 in the test on A498 is 8.36 µM (inactive); in the test on A549, 5.62 µM (inactive); with COLO 205, 2.86 µM (inactive); in the test on DU-145, 10.4 µM (inactive); in the test on HL-60, < 0.01 µM (active); in the test with HT-29, 3.16 µM (inactive). Also, the GI50 in the test on Hs-578T was 14.6 µM (inactive); with IGROV-1 it was 9.27 µM (inactive); with MCF7, 4.29 µM (inactive); in the test with NCI-H460, 6.5 µM (inactive); with OVCAR-3, 4.45 µM (inactive); in the test with OVCAR-4, 4.27 µM (inactive). Further, the GI50 in the test on PC-3 was 13.3 µM (inactive); in the test with RXF 393 it was 5.55 µM (inactive); in the test on SF-295, 12.2 µM (inactive); in the test on SK-OV-3 it was 19.6 µM (inactive); in the test on SNB-19, 6.89 µM (inactive); with SW-620, 5.21 µM (inactive). Moreover, the GI50 was 18.1 µM (inactive) in the test on UACC-257 and 14.8 µM (inactive) with UO-31.
Regarding `CC1=C(C(=O)N(C(C)C)C(C)C)CC(C(=O)N(C(C)C)C(C)C)=C(C)N1`, the GI50 in the test on A498 was 35.8 µM (inactive); with A549, > 100 µM (inactive); in the test with COLO 205, > 100 µM (inactive); in the test with DU-145, > 100 µM (inactive); with HL-60, > 100 µM (inactive); in the test on HT-29, > 100 µM (inactive). The GI50 in the test with Hs-578T, with IGROV-1, in the test with MCF7, in the test with NCI-H460, in the test with OVCAR-3 and in the test with OVCAR-4 was > 100 µM (inactive) each time. For the same compound, the GI50 with PC-3 was 96.6 µM (inactive); in the test with RXF 393, > 100 µM (inactive); in the test with SF-295 it was > 100 µM (inactive); with SK-OV-3 it was > 100 µM (inactive); with SNB-19, > 100 µM (inactive); in the test on SW-620, > 100 µM (inactive). Besides, the GI50 with UACC-257 and in the test on UO-31 was > 100 µM (inactive) each time.
`COc1cc(C[C@@H](C)N)cc(OC)c1`: the GI50 with A498, in the test with A549, with COLO 205, in the test on DU-145, with HL-60 and with HT-29 was > 100 µM (inactive) in each case. Also, the GI50 with Hs-578T, in the test with IGROV-1, in the test on MCF7, in the test with NCI-H460, in the test with OVCAR-3 and with OVCAR-4 was > 100 µM (inactive) each time. The GI50 was > 100 µM (inactive) in the test with PC-3; 43.7 µM (inactive) in the test on RXF 393; > 100 µM (inactive) with SF-295; > 100 µM (inactive) in the test with SK-OV-3; > 100 µM (inactive) with SNB-19; > 100 µM (inactive) with SW-620. Besides, the GI50 in the test with UACC-257 and in the test with UO-31 was > 100 µM (inactive) in each case.
As to `CCCCCCCCCCCC[C@@H](O)[C@H]1CC[C@H]([C@H](O)CCCC[C@H](O)CCCCC[C@@H](O)CC2=C[C@H](C)OC2=O)O1`, the GI50 with A498 is 3.55 µM (inactive); in the test with A549, 1.29 µM (inactive); in the test with COLO 205 it was 1.75 µM (inactive); in the test on DU-145 it was 6.4 µM (inactive); in the test with HL-60, 0.103 µM (active); in the test on HT-29, 2.1 µM (inactive). Further, the GI50 in the test with Hs-578T was 3.17 µM (inactive); in the test with IGROV-1, 0.61 µM (active); in the test with MCF7 it was 1.64 µM (inactive); in the test with NCI-H460, 2.07 µM (inactive); in the test on OVCAR-3 it was 0.569 µM (active); with OVCAR-4 it was 0.931 µM (active). The GI50 in the test with PC-3 is 1.53 µM (inactive); in the test on RXF 393, 3.55 µM (inactive); in the test on SF-295, < 0.0486 µM (active); in the test on SK-OV-3, 4.03 µM (inactive); in the test on SNB-19, 2.83 µM (inactive); with SW-620, 3.22 µM (inactive). The GI50 in the test on UACC-257 is 0.0168 µM (active); with UO-31, 1.05 µM (active).
Regarding `Cc1c[nH]c2c(O)cc3c(c12)[C@H](CCl)CN3C(=O)c1cc2cc(NC(=O)Nc3ccc4[nH]c(C(=O)N5C[C@@H](CCl)c6c5cc(O)c5[nH]cc(C)c65)cc4c3)ccc2[nH]1` [BIZELESIN], the 50% growth inhibitory concentration (GI50) with A498 was 0.904 µM (active); with A549, 11 µM (inactive); in the test on COLO 205, 8.91 µM (inactive); with DU-145 it was 3.65 µM (inactive); with HL-60, 0.00288 µM (active); with HT-29, 27.1 µM (inactive). Moreover, the GI50 in the test on Hs-578T was > 100 µM (inactive); with IGROV-1, 19.4 µM (inactive); with MCF7 it was 0.578 µM (active); in the test with NCI-H460, < 0.001 µM (active); in the test with OVCAR-3, 18.6 µM (inactive); with OVCAR-4, 17.3 µM (inactive). The GI50 was 33.9 µM (inactive) in the test on PC-3; > 100 µM (inactive) with RXF 393; 6.35 µM (inactive) with SF-295; 0.141 µM (active) with SK-OV-3; 28.5 µM (inactive) in the test on SNB-19; 17.4 µM (inactive) in the test on SW-620. For the same compound, the GI50 in the test with UACC-257 was 14.6 µM (inactive); in the test on UO-31, < 0.001 µM (active).

As usually defined, the GI50 is the concentration at which growth is held to half of that of the control.

These data come from ChEMBL document CHEMBL1201862, “PubChem BioAssay data set” (2004).
